Holding throughout (experiment): ≥ marks a high value that may be exact or a test limit, other limits are often not marked, values filed in µg/mL are converted to µM
Assay [1] relates to Xanthomonas fragariae Xf349-9A.
Assay [2] concerns Pseudomonas syringae pv. syringae EPS 94.
Assay [3] has as its system Xanthomonas arboricola pv. pruni CFBP 5563.
Assay [4] has as its system Pseudomonas syringae pv. actinidiae Psa3700.1.1.
Assay [5] deals with Xanthomonas campestris pv. Vesicatoria 2133-2.
Assay [6] concerns Erwinia amylovora PMV 6076.
The subject of assay [7] is Salmonella typhimurium KCTC 2370.
The subject of assay [8] is Pseudomonas aeruginosa ATCC 27853.
For assay [9], the system named is Micrococcus luteus ATCC 10240.
In assay [10] the test system is Bacillus subtilis KCTC 3038.
Assay [11] concerns Cryptococcus neoformans ATCC 34881.
The subject of assay [12] is Staphylococcus aureus ATCC 15752.
Assay [13] relates to Enterococcus faecalis ATCC 29212.
For assay [14], the system named is Escherichia coli ATCC 27325.
The test system of assay [15] is Candida albicans ATCC 10231.
The test system of assay [16] is Saccharomyces cerevisiae ATCC 44774.

The structures appear in SMILES notation.

In the case of `CC[C@H](C)[C@H](NC(=O)[C@H](CCC(=O)O)NC(=O)[C@H](CC(N)=O)NC(=O)[C@H](CC(C)C)NC(=O)[C@H](C)NC(=O)[C@H](CCCCN)NC(=O)[C@@H](N)CCC(N)=O)C(=O)N[C@@H](CC(N)=O)C(=O)N[C@@H](CCC(N)=O)C(=O)N[C@@H](Cc1ccccc1)C(N)=O` [QKALNEINQF], the MIC in assay [1], in assay [2], in [3], in assay [4], in assay [5] and in assay [6] was ≥ 50 µM throughout.

For the compound `CC(C)[C@H](NC(=O)CNC(=O)[C@H](CCC(N)=O)NC(=O)[C@@H](NC(=O)[C@@H](NC(=O)[C@@H]1CCCN1C(=O)[C@H](CCCN=C(N)N)NC(=O)[C@@H](NC(=O)[C@@H](NC(=O)[C@@H](N)CCCN=C(N)N)C(C)C)C(C)C)C(C)C)C(C)C)C(=O)N[C@@H](CCCCN)C(=O)N[C@@H](CCC(=O)O)C(=O)N[C@@H](CCCCN)C(=O)N[C@H](C(=O)N[C@@H](CCCN=C(N)N)C(=O)O)C(C)C` [RVVRPVVQGVKEKVR], the MIC in assay [7] is ≥ 36.6 µM; in assay [8], > 36.6 µM; in [9], ≥ 36.6 µM; in [10] it was ≥ 36.6 µM; in assay [11], ≥ 36.6 µM; in [12], ≥ 36.6 µM. The MIC is > 36.6 µM in assay [13], ≥ 36.6 µM in assay [14], > 36.6 µM in assay [15] and ≥ 36.6 µM in [16].

Values taken from DBAASP.
